Data reported in patent US5981558A, “DC107 derivatives” (Kyowa Hakko Kogyo Co., Ltd., priority 1996, dated 1999).
Where two headings read alike, the source gives them in different places.

Tests used:
[1] = tested on: HeLa S3 cells; test: HeLa S3 Cell Growth Inhibition Test; format: cell-based
Description: In each well of a 96-well microtiter plate was placed 0.1 mL of HeLa S3 cells having a concentration of 8×10^3 cells/mL and prepared in an MEM culture medium containing 10% fetal bovine serum and 2 mM glutamine. After the cells were incubated overnight at 37° C. in a carbon dioxide incubator, a test compound suitably diluted with a medium was added to the wells in an amount of 0.05 mL for each well. The cells were incubated at 37° C. for 72 hours in a carbon dioxide incubator. After the culture supernatant was removed, 0.1 mL of a culture medium containing 0.02% Neutral Red was added to each well. The cells were then incubated at 37° C. for 1 hour in a carbon dioxide incubator to dye the cells. After the culture supernatant was removed, each residue was rinsed once with physiological saline and the pigment was extracted with 0.001 N hydrochloric acid/30% ethanol. The absorbance at 550 nm of each extract was measured with a microplate reader. The drug concentration required for the 50% inhibition of cell growth, which is referred to as IC50, was calculated by comparing the absorbance for untreated cells with those for cells treated with the drug in known concentrations.

[2] = tested on: Sarcoma 180 mouse solid tumor; test: Antitumor activity against Sarcoma 180 mouse solid tumor; format: in vivo, mouse (ddY); conditions: Sarcoma-180, iv, 168 h
Description: To a ddY mouse were intraperitoneally transplanted 5×10^6 sarcoma 180 cells. On the seventh day from the transplant, the cells were collected from the ascites, washed once with sterilized physiological saline, and then diluted with sterilized physiological saline to prepare a cell suspension having a concentration of 5×10^7 cells/mL. This suspension was transplanted in an amount of 0.01 mL to a subcutaneous part of the right axilla of each of male ddY mice each weighing 20±1 g.
A test compound was dissolved in physiological saline containing polyoxyethylene sorbitan monolaurate. At 24 hours after the tumor transplant, 0.2 mL of the solution was intravenously administered to the tail of each of a group of five mice.

[3] = Homo sapiens, HeLa S3, 72 h, HeLa S3, 72 hours incubation, Neutral Red, read-out: IC50, HeLa S3 cell growth inhibition
[4] = 8.0 mg/kg i.v. once, 24 hours after transplant, tumor volume on day 7, read-out: T/C (tumor volume ratio treated/control)
[5] = 4.0 mg/kg i.v. once, 24 hours after transplant, tumor volume on day 7, read-out: T/C (tumor volume ratio treated/control)
[6] = Homo sapiens, HeLa S3, 72 h, read-out: IC50, HeLa S3 cell growth inhibition, HeLa S3, 72 hours incubation, Neutral Red
[7] = read-out: T/C (tumor volume ratio treated/control)
[8] = 16 mg/kg i.v. once, 24 hours after transplant, tumor volume on day 7, read-out: T/C (tumor volume ratio treated/control)

CC1=CC(OC2CCCCO2)C(=O)C=CC=Cc2csc(n2)C(C)N2C(=O)CC(C(C)(O)C(=O)SCOC(=O)C(C)(C)NC(=O)OCc3ccccc3)(CC1)[S+]2[O-] (single isomer, unassigned) [Compound 4]
IC50 [1, 3]: 39 nM
response vs control in vivo at 8 mg/kg [2, 4]: 30%

COC(=O)NCC(=O)OCSC(=O)C(C)(O)C12CC/C(C)=C/C(OC3CCCCO3)C(=O)/C=C/C=C\c3csc(n3)C(C)N(C(=O)C1)[S+]2[O-] (single isomer, unassigned) [Compound 41]
IC50 ([1]; HeLa S3, 72 hours incubation, Neutral Red, read-out: IC50, HeLa S3 cell growth inhibition): 4 nM
response vs control in vivo at 4 mg/kg [2, 5]: 32%

COC(=O)[C@H](CCC(=O)OCSC(=O)C(C)(O)C12CC/C(C)=C/C(OC3CCCCO3)C(=O)/C=C/C=C\c3csc(n3)C(C)N(C(=O)C1)[S+]2[O-])NC(=O)[C@@]12O[C@H]3COC(C)(C)O[C@H]3[C@@H]1OC(C)(C)O2 (single isomer, unassigned) [Compound 50]
IC50 [1, 6]: 16 nM
response vs control in vivo at 8 mg/kg [2, 7]: 41%

CC1=CC(O)C(=O)C=CC=Cc2csc(n2)C(C)N2C(=O)CC(C(C)(O)C(=O)SCOC(=O)C(C)(C)NC(=O)OCc3ccccc3)(CC1)[S+]2[O-] (centres unmarked) [Compound 3]
IC50 [1, 3]: 130 nM
response vs control in vivo at 16 mg/kg [2, 8]: 21%

CC1=CC(OC2CCCCO2)C(=O)C=CC=Cc2csc(n2)C(C)N2C(=O)CC(C(C)(O)C(=O)SCOC(=O)c3ccccc3)(CC1)[S+]2[O-] (centres unmarked) [Compound 7]
IC50 [1, 6]: 50 nM
response vs control in vivo at 4 mg/kg [2, 7]: 23%

CC1=CC(O)C(=O)C=CC=Cc2csc(n2)C(C)N2C(=O)CC(C(C)(O)C(=O)SCOC(=O)C3CCC(C(=O)O)CC3)(CC1)[S+]2[O-] (centres unmarked) [Compound 11]
IC50 ([1]; Homo sapiens, HeLa S3, 72 h, read-out: IC50, HeLa S3 cell growth inhibition, footnote *: Value after 72 hours of drug treatment): 100 nM
response vs control in vivo at 4 mg/kg [2, 7]: 48%

CC1=CC(OC2CCCCO2)C(=O)C=CC=Cc2csc(n2)C(C)N2C(=O)CC(C(C)(O)C(=O)SCOC(=O)C3CCC(C(=O)O)CC3)(CC1)[S+]2[O-] (centres unmarked) [Compound 12]
IC50 [1, 3]: 870 nM
response vs control in vivo at 8 mg/kg [2, 4]: 47%

CC1=CC(O)C(=O)C=CC=Cc2csc(n2)C(C)N2C(=O)CC(C(C)(O)C(=O)SCOC(=O)CO)(CC1)[S+]2[O-] (centres unmarked) [Compound 14]
IC50 [1, 6]: 380 nM
response vs control in vivo at 2 mg/kg [2, 7]: 44%

CC1=CC(OC2CCCCO2)C(=O)C=CC=Cc2csc(n2)C(C)N2C(=O)CC(C(C)(O)C(=O)SCOC(=O)CO)(CC1)[S+]2[O-] (centres unmarked) [Compound 15]
IC50 [1, 6]: 14 nM
response vs control in vivo at 1 mg/kg [2, 7]: 45%

CC1=CC(O)C(=O)C=CC=Cc2csc(n2)C(C)N2C(=O)CC(C(C)(O)C(=O)SCOC(=O)CNC(=O)OC(C)(C)C)(CC1)[S+]2[O-] (centres unmarked) [Compound 16]
IC50 [1, 6]: 6.1 nM
response vs control in vivo at 2 mg/kg [2, 7]: 47%

CC1=CC(O)C(=O)C=CC=Cc2csc(n2)C(C)N2C(=O)CC(C(C)(O)C(=O)SCOC(=O)CC[C@H](NC(=O)OC(C)(C)C)C(=O)OC(C)(C)C)(CC1)[S+]2[O-] (some centres unmarked) [Compound 22]
IC50 [1, 3]: 7.4 nM
response vs control in vivo at 4 mg/kg [2, 5]: 42%

COC(=O)[C@H](CCC(=O)OCSC(=O)C(C)(O)C12CCC(C)=CC(O)C(=O)C=CC=Cc3csc(n3)C(C)N(C(=O)C1)[S+]2[O-])NC(=O)[C@H]1O[C@@H]2OC(C)(C)O[C@@H]2[C@H]2OC(C)(C)O[C@H]21 (some centres unmarked) [Compound 25]
IC50 [1, 3]: 800 nM
response vs control in vivo at 16 mg/kg [2, 8]: 30%

COC(=O)[C@H](CCC(=O)OCSC(=O)C(C)(O)C12CCC(C)=CC(O)C(=O)C=CC=Cc3csc(n3)C(C)N(C(=O)C1)[S+]2[O-])NC(=O)C1(C)COC(C)(C)OC1 (some centres unmarked) [Compound 27]
response vs control in vivo at 2 mg/kg [2, 7]: 46%

CC(=O)NC(Cc1ccc(OC(C)=O)cc1)C(=O)OCSC(=O)C(C)(O)C12CCC(C)=CC(O)C(=O)C=CC=Cc3csc(n3)C(C)N(C(=O)C1)[S+]2[O-] (centres unmarked) [Compound 29]
IC50 [1, 3]: 400 nM
response vs control in vivo at 4 mg/kg [2, 5]: 47%

COCCOCCOCCOCCOCCOCC(=O)OCSC(=O)C(C)(O)C12CC/C(C)=C/C(O)C(=O)/C=C/C=C\c3csc(n3)C(C)N(C(=O)C1)[S+]2[O-] (centres unmarked) [Compound 37]
response vs control in vivo at 8 mg/kg [2, 7]: 36%

COC(=O)NCC(=O)OCSC(=O)C(C)(O)C12CC/C(C)=C/C(OC3CCCCO3)C(=O)/C=C/C=C\c3csc(n3)C(C)N(C(=O)C1)[S+]2[O-] (centres unmarked) [Compound 40]
IC50 [1, 3]: 15 nM
response vs control in vivo at 4 mg/kg [2, 5]: 36%

C/C1=C\C(OC2CCCCO2)C(=O)/C=C/C=C\c2csc(n2)C(C)N2C(=O)CC(C(C)(O)C(=O)SCOC(=O)CCNC(=O)[C@H]3O[C@@H]4OC(C)(C)O[C@@H]4[C@H]4OC(C)(C)O[C@H]43)(CC1)[S+]2[O-] (some centres unmarked) [Compound 45]
IC50 [1, 6]: 44 nM
response vs control in vivo at 8 mg/kg [2, 7]: 45%

C=C(CSC(=O)C(C)(O)C12CC/C(C)=C/C(O)C(=O)/C=C/C=C\c3csc(n3)C(C)N(C(=O)C1)[S+]2[O-])C(=O)O (centres unmarked) [Compound 115]
IC50 [1, 3]: > 10000 nM

C=C(CSC(=O)C(C)(O)C12CC/C(C)=C/C(OC3(OC)CCOCC3)C(=O)/C=C/C=C\c3csc(n3)C(C)N(C(=O)C1)[S+]2[O-])C(=O)O (centres unmarked) [Compound 116]
IC50 [1, 3]: 8500 nM

C=C(CSC(=O)C(C)(O)C12CC/C(C)=C/C(O)C(=O)/C=C/C=C\c3csc(n3)C(C)N(C(=O)C1)[S+]2[O-])C(=O)N1CCCCC1 (centres unmarked) [Compound 117]
IC50 [1, 6]: 2100 nM

CCC/C=C(\CSC(=O)C(C)(O)C12CC/C(C)=C/C(O)C(=O)/C=C/C=C\c3csc(n3)C(C)N(C(=O)C1)[S+]2[O-])C(=O)OC (centres unmarked) [Compound 118]
IC50 [1, 6]: 580 nM

CCC/C=C(\CSC(=O)C(C)(O)C12CC/C(C)=C/C(OC3(OC)CCOCC3)C(=O)/C=C/C=C\c3csc(n3)C(C)N(C(=O)C1)[S+]2[O-])C(=O)OC (centres unmarked) [Compound 119]
IC50 [1, 3]: 870 nM

COC(=O)/C(=C/c1ccccc1)CSC(=O)C(C)(O)C12CC/C(C)=C/C(O)C(=O)/C=C/C=C\c3csc(n3)C(C)N(C(=O)C1)[S+]2[O-] (centres unmarked) [Compound 120]
IC50 [1, 6]: 270 nM

CC1=C(CSC(=O)C(C)(O)C23CC/C(C)=C/C(O)C(=O)/C=C/C=C\c4csc(n4)C(C)N(C(=O)C2)[S+]3[O-])C(=O)OC(C)(C)O1 (centres unmarked) [Compound 121]
IC50 [1, 3]: 1500 nM

CC1=C(CSC(=O)C(C)(O)C23CC/C(C)=C/C(O)C(=O)/C=C/C=C\c4csc(n4)C(C)N(C(=O)C2)[S+]3[O-])C(=O)OC2(CCOCC2)O1 (centres unmarked) [Compound 124]
IC50 [1, 3]: 960 nM

CCOC(=O)N1CCC2(CC1)OC(=O)C(CSC(=O)C(C)(O)C13CC/C(C)=C/C(O)C(=O)/C=C/C=C\c4csc(n4)C(C)N(C(=O)C1)[S+]3[O-])=C(C)O2 (centres unmarked) [Compound 126]
IC50 ([1]; Homo sapiens, HeLa S3, 72 hours incubation, Neutral Red, read-out: IC50, HeLa S3 cell growth inhibition): 5500 nM

C/C1=C\C(O)C(=O)/C=C/C=C\c2csc(n2)C(C)N2C(=O)CC(C(C)(O)C(=O)SCOC(=O)CCCNC(=O)C3(C)COC(C)(C)OC3)(CC1)[S+]2[O-] (centres unmarked) [Compound 138]
response vs control in vivo at 4 mg/kg [2, 7]: 34%

C/C1=C\C(O)C(=O)/C=C/C=C\c2csc(n2)C(C)N2C(=O)CC(C(C)(O)C(=O)SCOC(=O)CCCNC(=O)[C@@]34O[C@@H](CO)[C@@H](O)[C@@H]3OC(C)(C)O4)(CC1)[S+]2[O-] (some centres unmarked) [Compound 141]
response vs control in vivo at 4 mg/kg [2, 7]: 31%

C/C1=C\C(O)C(=O)/C=C/C=C\c2csc(n2)C(C)N2C(=O)CC(C(C)(O)C(=O)SCOC(=O)OCCN3CCCC3=O)(CC1)[S+]2[O-] (centres unmarked) [Compound 146]
response vs control in vivo at 4 mg/kg [2, 7]: 38%

COCCOCCOCCOCC(=O)OCSC(=O)C(C)(O)C12CC/C(C)=C/C(O)C(=O)/C=C/C=C\c3csc(n3)C(C)N(C(=O)C1)[S+]2[O-] (centres unmarked) [Compound 147]
response vs control in vivo at 2 mg/kg [2, 7]: 43%

COCCOCCOCCOC(=O)OCSC(=O)C(C)(O)C12CC/C(C)=C/C(O)C(=O)/C=C/C=C\c3csc(n3)C(C)N(C(=O)C1)[S+]2[O-] (centres unmarked) [Compound 149]
response vs control in vivo at 8 mg/kg [2, 7]: 42%

C/C1=C\C(O)C(=O)/C=C/C=C\c2csc(n2)C(C)N2C(=O)CC(C(C)(O)C(=O)SCc3oc(=O)oc3CO[C@@H]3C[C@@H](O)[C@H](O)[C@@H](CO)O3)(CC1)[S+]2[O-] (some centres unmarked) [Compound 152]
response vs control in vivo at 16 mg/kg [2, 7]: 17%

C/C1=C\C(O)C(=O)/C=C/C=C\c2csc(n2)C(C)N2C(=O)CC(C(C)(O)C(=O)SCc3oc(=O)oc3CO[C@@H]3C[C@H](O)[C@@H](O)[C@H](C)O3)(CC1)[S+]2[O-] (some centres unmarked) [Compound 154]
response vs control in vivo at 4 mg/kg [2, 7]: 40%

C/C1=C\C(O)C(=O)/C=C/C=C\c2csc(n2)C(C)N2C(=O)CC(C(C)(O)C(=O)SCc3oc(=O)oc3CO[C@H]3C[C@H](O)[C@@H](O)[C@H](C)O3)(CC1)[S+]2[O-] (some centres unmarked) [Compound 155]
response vs control in vivo at 8 mg/kg [2, 7]: 37%

C/C1=C\C(OC2CCCCO2)C(=O)/C=C/C=C\c2csc(n2)C(C)N2C(=O)CC(C(C)(O)C(=O)SCc3oc(=O)oc3COC(=O)CN(C)C)(CC1)[S+]2[O-] (centres unmarked) [Compound 159]
response vs control in vivo at 32 mg/kg [2, 7]: 33%
